Data as given in patent publication US8586125B2, “Thermal treatment of an implantable medical device” (Advanced Cardiovascular Systems, Inc., priority 1999, dated 2013).

Columns and labels:
coronary arteries = assay: Cephalotaxin/EVOH coated stents implanted in porcine coronary arteries; format: in vivo, pigs; settings: cephalotaxin coated vs uncoated and EVOH coated stents; estimated 33 μg cephalotaxin per stent
Experimental: Multi-Link™ stents were cleaned by placement in an ultrasonic bath of isopropyl alcohol solution for 10 minutes. The stents were dried and plasma cleaned in a plasma chamber. An EVOH solution was made with 1 gram of EVOH and 7 grams of DMSO, making an EVOH:DMSO ratio of 1:7. Cephalotaxin was added to the 1:7 EVOH:DMSO solution. Cephalotaxin constituted 5% by weight of the total weight of the solution. The solution was vortexed and placed in a tube. The cleaned Multi-Link™ stents were attached to mandrel wires and dipped into the solution. The coated stents were passed over a hot plate, for about 3-5 seconds, with a temperature setting of about 60° C. The coated stents were cured for 6 hours in an air box then placed in a vacuum oven at 60° C. for 24 hours. The above process was repeated twice, having a total of three layers. The average weight of the coating was 0.00013 gram, with an estimated cephalotaxin concentration of 33 μg. The stents were sterilized by electron beam radiation. […]

[1] = Release rate from a standard polymeric coating; format: physicochemical; settings: in about 24 hours
Excerpt: Another potential shortcoming of the foregoing method of medicating stents is that the release rate of the active agent may be too high to provide an efficacious treatment. This shortcoming may be especially pronounced with certain active agents. […] Thus, there is a need for a coating that reduces the release rate of active agents in order to provide a more efficacious release rate profile.

[2] = Release Rate Profile Procedure (in vitro, HPLC); format: physicochemical; settings: as demonstrated in Example 53
Experimental: This Example 41 is referred to as the “Release Rate Profile Procedure.” A drug-coated stent was placed on a stent holder of a Vankel Bio-Dis release rate tester (Vankel, Inc., Cary, N.C.). The stent was dipped into an artificial medium which stabilizes the 40-O-(2-hydroxy)ethyl-rapamycin in the testing solution, including a phosphate buffer saline solution (10 mM, pH 7.4) with 1% TRITON X-100 (Sigma Corporation), for a designated amount of time (e.g., 3 hours). Then the solution was analyzed for the amount of drug released from the stent coating using an HPLC process. The HPLC system consisted of a Waters 2690 system with an analytical pump, a column compartment (set at 40° C.), an auto-sampler, and a 996 PDA detector. The column was an YMC Pro C18 (150 mm×4.6 I.D., 3 μm particle size), maintained at a temperature of 40° C. The mobile phase consisted of 75% acetonitrile and 25% 20 mMolar ammonium acetate. […] After the drug solution was analyzed by HPLC the results were quantified by comparing the release rate results with a reference standard.
If the experimental protocol required that the stent coating be subjected to experimental conditions for an additional time, the stent was then dipped in a fresh medium solution for the necessary amount of time (e.g., another 3 hours) and the drug released in the solution was analyzed again according to the HPLC procedure described above. […]

Compound	amount of neointimal proliferation resulting from arterial injury (coronary arteries)	release rate from a standard polymeric coating [1]	decrease of the release rate by thermal treatment as compared to a control group [2]
COC1=C[C@]23CCCN2CCc2cc4c(cc2[C@@H]3[C@@H]1O)OCO4 [cephalotaxin, Cephalotaxin]	no significant difference		
CO[C@H]1C[C@@H]2CC[C@@H](C)[C@@](O)(O2)C(=O)C(=O)N2CCCC[C@H]2C(=O)O[C@H]([C@H](C)C[C@@H]2CC[C@@H](OCCO)[C@H](OC)C2)CC(=O)[C@H](C)/C=C(\C)[C@@H](O)[C@@H](OC)C(=O)[C@H](C)C[C@H](C)/C=C/C=C/C=C/1C [40-O-(2-hydroxy)ethyl-rapamycin]		greater than 50%	about 50%
